Measured values from patent US20070112175A1, “Determining drug resistance” (Children's Cancer Institute Australia for Medical Research, priority 2003, published 2007).

Experiments:
[1] = tested on: CEM/VCR R cells; assay: Resistance of vincristine-selected subline CEM/VCR R; type: cell-based, Human; settings: CEM/VCR R subline of CCRF-CEM
Text: (§1) Human T-cell acute lymphoblastic leukaemia cells, CCRF-CEM, and drug resistant sublines, CEM/VCR R (vincristine-selected) and CEM/VLB100 (vinblastine-selected), and CEM/dEpoB 1×, CEM/dEpoB 2×, CEM/dEpoB 4×, CEM/dEpoB 10×(desoxyepothilone B-selected), were maintained in RPMI 1640 containing 10% FCS as suspension cultures. The CEM/VCRR are 22,600-fold and CEM/VLB100 are 6,667-fold resistant to vincristine and vinblastine respectively. Cells were harvested for protein analysis by centrifugation at 1500 rpm for 5 min.

[2] = tested on: NIH3T3 mutant γ-actin transfectant cells; assay: Drug treatment and α-tubulin immunofluorescence of microtubules; type: cell-based, mouse; settings: 10 μM, 30 min
Method: NIH3T3 mutant γ-actin transfectant cells were grown to ˜80% confluency in 4-well chamber slides (Nalge Nunc International, Naperville, Ill.) and treated with either 0.5% DMSO (vehicle control), 10 μM VLB, or 10 μM dEpoB, for 30 min, prior to immunostaining for total α-tubulin using standard methods. Epifluorescence imaging was performed using a Zeiss Axioscope 100 linked to a cooled CCD camera.

[3] = tested on: CEM/VLB100 cells; assay: Resistance of vinblastine-selected subline CEM/VLB100; type: cell-based, Human; settings: CEM/VLB100 subline of CCRF-CEM
Text: as §1

[4] = tested on: NIH3T3 mutant γ-actin transfectant cells; assay: Drug resistance clonogenic assay; type: cell-based, mouse; settings: P<0.05
Method: DNA (1 μg) was transfected into subconfluent NIH3T3 mouse fibroblast cells using the Fugene (Roche) transfection reagent according to the manufacturer's instructions. Stable transfectants were selected in 1 mgm1^−1 G418 for 16 days. Levels of γ-actin expression were determined by immunoblotting as described above.
The ability of mutant γ-actin to confer resistance to antimicrotubule agents was determined using clonogenic assays with slight modifications. NIH3T3 mutant γ-actin transfectant cells were seeded at 100 cells/well in replicate wells of a 24-well dish containing increasing concentrations of VLB. The media was replaced after 3 days with drug-free DME/10%FCS. After a further 4 days the media was removed and colonies stained with 0.1% crystal violet. The densitometric volume of each well was determined using the Quantity One software package (Biorad) and expressed relative to the respective drug-free control cells. The concentration that kills 50% of cells (ID50) and statistical analyses were then performed. The relative resistance was determined by dividing the ID50 of each γ-actin transfectant cell line with the ID50 of the empty vector cells.

[5] = empty vector and wild type γ-actin expressing cells

Row | SMILES | fold resistant to vincristine [1] | effect on cell shape and microtubule network [2, 5] | effect on cell shape and microtubule network ([2]; mutant γ-actin transfectants) | fold resistant to vinblastine [3] | relative resistance (ID50 transfectant / ID50 empty vector) ([4]; P98L γ-actin mutant vs empty vector and wildtype γ-actin cells) | relative resistance (ID50 transfectant / ID50 empty vector) ([4]; V103L γ-actin mutant vs empty vector and wildtype γ-actin cells)
1 | CC[C@]1(O)C[C@H]2CN(CCc3c([nH]c4ccccc34)[C@@](C(=O)OC)(c3cc4c(cc3OC)N(C=O)[C@H]3[C@@](O)(C(=O)OC)[C@H](OC(C)=O)[C@]5(CC)C=CCN6CC[C@]43[C@@H]65)C2)C1 [vincristine] | 22,600 fold |  |  |  |  | 
2 | C/C1=C/C[C@@H](/C(C)=C/c2csc(C)n2)OC(=O)C[C@H](O)C(C)(C)C(=O)[C@H](C)[C@@H](O)[C@@H](C)CCC1 [dEpoB, Desoxyepothilone B] |  | marked structural changes | microtubule network remains largely intact |  |  | 
3 | CC[C@]1(O)C[C@@H]2CN(CCc3c([nH]c4ccccc34)[C@@](C(=O)OC)(c3cc4c(cc3OC)N(C)[C@H]3[C@@](O)(C(=O)OC)[C@H](OC(C)=O)[C@]5(CC)C=CCN6CC[C@]43[C@@H]65)C2)C1 [vinblastine] |  | marked structural changes | microtubule network remains largely intact | 6,667 fold | over 3 fold | over 2 fold
